Results published in paper PMC10088252.
Where two headings read alike, the source gives them in different places.

Method: Dose adjustment was allowed according to the severity of toxicity [Supplementary Table 1].
The primary endpoints were safety, ORR and DCR assessed by investigators. […] AEs referred to treatment-emergent adverse events (TEAEs) and TRAEs were assessed by investigators. Serious adverse events (SAEs) referred to AEs meeting at least one of the following criteria: event leading to death; life-threatening event; event requiring hospitalization or extension of hospital stay; event leading to persistent or evident disability or dysfunction; event leading to congenital malformation or birth defect or event which might lead to injury or that need medical treatment to avoid the above mentioned important medical events.

O=C(Nc1ccc(Oc2ccnc3c2CCN3)c(F)c1)c1c[nH]cc(-c2ccc(F)cc2)c1=O
2 (20.0) n (%): TRAE Urinary tract infection, any grade (600 mg QD (n=10))
3 (7.9) n (%): TRAE Diarrhoea, any grade (Total (n=38)) | TRAE Dry mouth, any grade (Total (n=38)) | TRAE Elevated bilirubin, any grade (Total (n=38)) | TRAE Elevated creatine phosphokinase, any grade (Total (n=38)) | TRAE Haematuria, any grade (Total (n=38)) | TRAE Leukopenia, any grade (Total (n=38)) | TRAE Nausea, any grade (Total (n=38)) | TRAE Thrombocytopenia, any grade (Total (n=38)) | TRAE Urinary tract infection, any grade (Total (n=38)) | TRAE Ventricular arrhythmia, any grade (Total (n=38))
21.1%: TRAE constipation (Total (n=38))
1 (2.6) n (%): TRAE Accessory nerve disorder, any grade (Total (n=38)) | TRAE Anaemia, grade 3-4 (Total (n=38)) | TRAE Anaesthesia oral, any grade (Total (n=38)) | TRAE Arrhythmia, any grade (Total (n=38)) | TRAE Arthralgia, any grade (Total (n=38)) | TRAE Asthenia, grade 3-4 (Total (n=38)) | TRAE Blister, any grade (Total (n=38)) | TRAE Chest discomfort, any grade (Total (n=38)) | TRAE Chronic kidney disease, any grade (Total (n=38)) | TRAE Cough, any grade (Total (n=38)) | TRAE Decreased appetite, grade 3-4 (Total (n=38)) | TRAE Dizziness, any grade (Total (n=38)) | TRAE Dysgeusia, grade 3-4 (Total (n=38)) | TRAE Dyskinesia, any grade (Total (n=38)) | TRAE Dyskinesia, grade 3-4 (Total (n=38)) | TRAE Dysphonia, any grade (Total (n=38)) | TRAE Dyspnoea, any grade (Total (n=38)) | TRAE Dyspnoea, grade 3-4 (Total (n=38)) | TRAE Electrocardiogram QT prolonged, any grade (Total (n=38)) | TRAE Elevated D dimer, any grade (Total (n=38)) | TRAE Elevated GGT, any grade (Total (n=38)) | TRAE Elevated LDH, any grade (Total (n=38)) | TRAE Elevated alpha-HBDH, any grade (Total (n=38)) | TRAE Elevated serum urea, any grade (Total (n=38)) | TRAE Elevated troponin, any grade (Total (n=38)) | TRAE Genital rash, any grade (Total (n=38)) | TRAE Headache, any grade (Total (n=38)) | TRAE Hyperhidrosis, any grade (Total (n=38)) | TRAE Hyperlipidaemia, any grade (Total (n=38)) | TRAE Hypertension, grade 3-4 (Total (n=38)) | TRAE Hypocalcaemia, any grade (Total (n=38)) | TRAE Hypotension, any grade (Total (n=38)) | TRAE Insomnia, any grade (Total (n=38)) | TRAE Onycholysis, any grade (Total (n=38)) | TRAE Oropharyngeal pain, any grade (Total (n=38)) | TRAE Oropharyngeal pain, grade 3-4 (Total (n=38)) | TRAE Paraesthesia, any grade (Total (n=38)) | TRAE Proteinuria, grade 3-4 (Total (n=38)) | TRAE Pruritus, any grade (Total (n=38)) | TRAE Rash maculo-papular, any grade (Total (n=38)) | TRAE Sinus tachycardia, any grade (Total (n=38)) | TRAE Skin fissures, any grade (Total (n=38)) | TRAE Skin fissures, grade 3-4 (Total (n=38)) | TRAE Supraventricular extrasystoles, any grade (Total (n=38)) | TRAE Upper respiratory tract infection, any grade (Total (n=38)) | TRAE Urinary retention, any grade (Total (n=38)) | TRAE Ventricular extrasystoles, any grade (Total (n=38)) | TRAE Weight loss, any grade (Total (n=38))
23.7%: TRAE PPE (Total (n=38)) | TRAE dysgeusia (Total (n=38))
9 (23.7) n (%): TRAE Dysgeusia, any grade (Total (n=38)) | TRAE PPE, any grade (Total (n=38))
All the 38 patients: patients with at least one TEAE (Total (n=38))
14 (36.8) n (%): TRAE Elevated ALT, any grade (Total (n=38))
7 (18.4) n (%): TRAE Elevated blood creatinine, any grade (Total (n=38))
2 (5.3) n (%): TRAE Activated partial thromboplastin time prolonged, any grade (Total (n=38)) | TRAE Anaemia, any grade (Total (n=38)) | TRAE Hypoaesthesia oral, any grade (Total (n=38)) | TRAE Neuritis, any grade (Total (n=38)) | TRAE Occult blood, any grade (Total (n=38)) | TRAE Oedema peripheral, any grade (Total (n=38)) | TRAE Thrombocytopenia, grade 3-4 (Total (n=38)) | TRAE Vomiting, any grade (Total (n=38))
36.8%: TRAE elevated ALT (Total (n=38)) | grade ≥ 3 TEAEs, patients (Total (n=38))
4 (10.5) n (%): TRAE Hypertension, any grade (Total (n=38)) | TRAE PPE, grade 3-4 (Total (n=38)) | TRAE Proteinuria, any grade (Total (n=38))
13.2%: SAEs, patients (Total (n=38))
28.9%: TRAE elevated AST (Total (n=38)) | grade ≥ 3 TRAEs, patients (Total (n=38))
5 (13.2) n (%): TRAE Asthenia, any grade (Total (n=38)) | TRAE Decreased appetite, any grade (Total (n=38))
2.6%: TRAE leading to treatment discontinuation, patients (Total (n=38), grade 3 PPE in 400 mg BID cohort) | treatment-related SAE, patients (Total (n=38), thrombocytopenia in 600 mg QD cohort)
No treatment-related deaths occurred: treatment-related deaths (Total (n=38))
10.5%: grade ≥ 3 TRAE PPE (Total (n=38))
11 (28.9) n (%): TRAE Elevated AST, any grade (Total (n=38))
8 (21.1) n (%): TRAE Constipation, any grade (Total (n=38))
6 (15.8) n (%): TRAE Decreased Ccr, any grade (Total (n=38))
0 n (%): TRAE Rash maculo-papular, any grade (600 mg QD (n=10)) | TRAE Rash maculo-papular, grade 3-4 (600 mg QD (n=10)) | TRAE Sinus tachycardia, grade 3-4 (600 mg QD (n=10)) | TRAE Supraventricular extrasystoles, grade 3-4 (600 mg QD (n=10)) | TRAE Upper respiratory tract infection, any grade (600 mg QD (n=10)) | TRAE Upper respiratory tract infection, grade 3-4 (600 mg QD (n=10)) | TRAE Urinary retention, grade 3-4 (600 mg QD (n=10)) | TRAE Urinary tract infection, grade 3-4 (600 mg QD (n=10)) | TRAE Ventricular arrhythmia, grade 3-4 (600 mg QD (n=10)) | TRAE Ventricular extrasystoles, any grade (600 mg QD (n=10)) | TRAE Ventricular extrasystoles, grade 3-4 (600 mg QD (n=10)) | TRAE Vomiting, any grade (600 mg QD (n=10)) | TRAE Vomiting, grade 3-4 (600 mg QD (n=10)) | TRAE Weight loss, grade 3-4 (600 mg QD (n=10)) | TRAE Accessory nerve disorder, grade 3-4 (Total (n=38)) | TRAE Activated partial thromboplastin time prolonged, grade 3-4 (Total (n=38)) | TRAE Anaesthesia oral, grade 3-4 (Total (n=38)) | TRAE Arrhythmia, grade 3-4 (Total (n=38)) | TRAE Arthralgia, grade 3-4 (Total (n=38)) | TRAE Blister, grade 3-4 (Total (n=38)) | TRAE Chest discomfort, grade 3-4 (Total (n=38)) | TRAE Chronic kidney disease, grade 3-4 (Total (n=38)) | TRAE Constipation, grade 3-4 (Total (n=38)) | TRAE Cough, grade 3-4 (Total (n=38)) | TRAE Decreased Ccr, grade 3-4 (Total (n=38)) | TRAE Diarrhoea, grade 3-4 (Total (n=38)) | TRAE Dizziness, grade 3-4 (Total (n=38)) | TRAE Dry mouth, grade 3-4 (Total (n=38)) | TRAE Dysphonia, grade 3-4 (Total (n=38)) | TRAE Electrocardiogram QT prolonged, grade 3-4 (Total (n=38)) | TRAE Elevated ALT, grade 3-4 (Total (n=38)) | TRAE Elevated AST, grade 3-4 (Total (n=38)) | TRAE Elevated D dimer, grade 3-4 (Total (n=38)) | TRAE Elevated GGT, grade 3-4 (Total (n=38)) | TRAE Elevated LDH, grade 3-4 (Total (n=38)) | TRAE Elevated alpha-HBDH, grade 3-4 (Total (n=38)) | TRAE Elevated bilirubin, grade 3-4 (Total (n=38)) | TRAE Elevated blood creatinine, grade 3-4 (Total (n=38)) | TRAE Elevated creatine phosphokinase, grade 3-4 (Total (n=38)) | TRAE Elevated serum urea, grade 3-4 (Total (n=38)) | TRAE Elevated troponin, grade 3-4 (Total (n=38)) | TRAE Genital rash, grade 3-4 (Total (n=38)) | TRAE Haematuria, grade 3-4 (Total (n=38)) | TRAE Headache, grade 3-4 (Total (n=38)) | TRAE Hyperhidrosis, grade 3-4 (Total (n=38)) | TRAE Hyperlipidaemia, grade 3-4 (Total (n=38)) | TRAE Hypoaesthesia oral, grade 3-4 (Total (n=38)) | TRAE Hypocalcaemia, grade 3-4 (Total (n=38)) | TRAE Hypotension, grade 3-4 (Total (n=38)) | TRAE Insomnia, grade 3-4 (Total (n=38)) | TRAE Leukopenia, grade 3-4 (Total (n=38)) | TRAE Nausea, grade 3-4 (Total (n=38)) | TRAE Neuritis, grade 3-4 (Total (n=38)) | TRAE Occult blood, grade 3-4 (Total (n=38)) | TRAE Oedema peripheral, grade 3-4 (Total (n=38)) | TRAE Onycholysis, grade 3-4 (Total (n=38)) | TRAE Paraesthesia, grade 3-4 (Total (n=38)) | TRAE Pruritus, grade 3-4 (Total (n=38)) | TRAE Rash maculo-papular, grade 3-4 (Total (n=38)) | TRAE Sinus tachycardia, grade 3-4 (Total (n=38)) | TRAE Supraventricular extrasystoles, grade 3-4 (Total (n=38)) | TRAE Upper respiratory tract infection, grade 3-4 (Total (n=38)) | TRAE Urinary retention, grade 3-4 (Total (n=38)) | TRAE Urinary tract infection, grade 3-4 (Total (n=38)) | TRAE Ventricular arrhythmia, grade 3-4 (Total (n=38)) | TRAE Ventricular extrasystoles, grade 3-4 (Total (n=38)) | TRAE Vomiting, grade 3-4 (Total (n=38)) | TRAE Weight loss, grade 3-4 (Total (n=38))
1 (10.0) n (%): TRAE Sinus tachycardia, any grade (600 mg QD (n=10)) | TRAE Skin fissures, any grade (600 mg QD (n=10)) | TRAE Skin fissures, grade 3-4 (600 mg QD (n=10)) | TRAE Supraventricular extrasystoles, any grade (600 mg QD (n=10)) | TRAE Thrombocytopenia, any grade (600 mg QD (n=10)) | TRAE Thrombocytopenia, grade 3-4 (600 mg QD (n=10)) | TRAE Urinary retention, any grade (600 mg QD (n=10)) | TRAE Ventricular arrhythmia, any grade (600 mg QD (n=10)) | TRAE Weight loss, any grade (600 mg QD (n=10))
